Test results: patent publication US9394297B2, “Amides as pim inhibitors” (AMGEN INC., priority 2012, dated 2016)
Structures can show the parent of a compound that is named as a salt. Where two headings read alike, the source gives them in different places.

Columns and labels:
Pim-1 = Pim-1 (Homo sapiens (Human), UniProt P11309); assay: Pim-Mn enzyme assay (HTRF, 384-well), Pim-1; type: biochemical; conditions: read-out: Pim-1-Mn IC50 IP
KMS-12-BM cell lines = assay: KMS12 #2 flow cytometry assay (phospho-BAD Ser112); type: cell-based; conditions: KMS-12-BM cells, pBAD Ser112 by flow cytometry, 110 min with compound, read-out: KMS-12-Flow IC50 IP
Pim-2 = Pim-2 (Homo sapiens (Human), UniProt Q9P1W9); assay: Pim-Mn enzyme assay (HTRF, 384-well), Pim-2; type: biochemical; conditions: read-out: Pim-2-Mn IC50 IP
[1] = Pim-1 enzyme 5 pM, ATP 1.5 μM, BAD (S112) 0.5 μM, HTRF, 22-point curve
[2] = Pim-2 enzyme 0.5 pM, ATP 1.5 μM, BAD (S112) 0.5 μM, HTRF, 22-point curve

Sequence of Pim-2 (Q9P1W9 whole entry): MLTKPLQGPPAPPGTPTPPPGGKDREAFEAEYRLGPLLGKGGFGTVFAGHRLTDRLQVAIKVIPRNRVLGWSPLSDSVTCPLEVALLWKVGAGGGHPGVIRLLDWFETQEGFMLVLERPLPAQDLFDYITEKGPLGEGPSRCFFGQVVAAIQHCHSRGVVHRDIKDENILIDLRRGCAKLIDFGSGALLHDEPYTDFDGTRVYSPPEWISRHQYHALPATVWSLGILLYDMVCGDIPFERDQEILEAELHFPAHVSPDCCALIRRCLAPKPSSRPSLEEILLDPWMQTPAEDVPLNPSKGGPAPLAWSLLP
Sequence of Pim-1 (P11309 whole entry): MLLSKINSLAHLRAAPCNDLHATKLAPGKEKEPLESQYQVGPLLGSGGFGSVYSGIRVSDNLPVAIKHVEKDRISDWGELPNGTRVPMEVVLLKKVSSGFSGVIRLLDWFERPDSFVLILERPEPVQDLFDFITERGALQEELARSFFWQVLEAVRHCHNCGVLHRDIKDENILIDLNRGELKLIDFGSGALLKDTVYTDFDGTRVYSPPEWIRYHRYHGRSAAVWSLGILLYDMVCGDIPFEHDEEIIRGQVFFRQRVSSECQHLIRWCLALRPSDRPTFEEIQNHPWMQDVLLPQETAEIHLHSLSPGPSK

IC50 (Pim-1; [1]) [nM] | IC50 (KMS-12-BM cell lines; Homo sapiens, 110 min) [nM] | IC50 (Pim-2; [2]) [nM] | Structure (SMILES) | also measured
1.22 | 99.3 | 0.996 | Cc1nc2cccc(-c3cc4c([nH]3)CCNC4=O)c2nc1NCC1(C)CC1 [Example 335, 2-(2-Methyl-3-(((1-methylcyclopropyl)methyl)amino)-5-quinoxalinyl)-1,5,6,7-tetrahydro-4H-pyrrolo[3,2-c]pyridin-4-one] | 
7.08 | 2310 | 16.4 | Cc1nc2ccc(F)c(-c3cc4c([nH]3)[C@H]([C@H](C)O)NC4=O)c2nc1NC1CC1 [Example 354, (R)-2-(3-(cyclopropylamino)-6-fluoro-2-methylquinoxalin-5-yl)-6-((S)-1-hydroxyethyl)-5,6-dihydropyrrolo[3,4-b]pyrrol-4(1H)-one] | 
83.8 | > 20000 | 62.7 | Cc1nc2cccc(-c3cc4c([nH]3)CCNC4=O)c2nc1NC(C)c1ccncn1 (stereo not shown) [Example 323, 2-(2-methyl-3-((1-(pyrimidin-4-yl)ethyl)amino)quinoxalin-5-yl)-6,7-dihydro-1H-pyrrolo[3,2-c]pyridin-4(5H)-one] | 
4.07 | 1120 | 10.8 | CC(C)(C)Nc1nc2c(-c3cc4c([nH]3)CCNC4=O)cccc2nc1N1CC(O)C1 [Example 346, 2-(3-(tert-butylamino)-2-(3-hydroxy-1-azetidinyl)-5-quinoxalinyl)-1,5,6,7-tetrahydro-4H-pyrrolo[3,2-c]pyridin-4-one] | 
50.8 | 2520 |  | Cc1nc2cccc(-c3cc4c([nH]3)CCNC4=O)c2nc1NC(C)(C)CNC(=O)OC(C)(C)C [Example 339, tert-butyl (2-methyl-2-((3-methyl-8-(4-oxo-4,5,6,7-tetrahydro-1H-pyrrolo[3,2-c]pyridin-2-yl)-2-quinoxalinyl)amino)propyl)carbamate] | 
 | 57.1 |  | Cc1nc2ccc(F)c(-c3cc4c([nH]3)[C@H](C)NC4=O)c2nc1NC(C)(C)C [Example 298, (6S)-2-(3-(tert-butylamino)-6-fluoro-2-methyl-5-quinoxalinyl)-6-methyl-5,6-dihydropyrrolo[3,4-b]pyrrol-4(1H)-one] | 
 | 144 | 0.4 | C[C@H]1NC(=O)c2cc(-c3cccc4c(=O)[nH]c(N(C)C(C)(C)C)nc34)[nH]c21 [Example 407, 2-(tert-butyl(methyl)amino)-8-((6R)-6-methyl-4-oxo-1,4,5,6-tetrahydropyrrolo[3,4-b]pyrrol-2-yl)-4(3H)-quinazolinone] | 
 | 190 |  | Cc1nc2cccc(-c3[nH]c4c(c3Cl)C(=O)NCC4)c2nc1NC(C)(C)C [Example 348, 2-(3-(tert-butylamino)-2-methyl-5-quinoxalinyl)-3-chloro-1,5,6,7-tetrahydro-4H-pyrrolo[3,2-c]pyridin-4-one] | 
 | 445 |  | Cc1nc2cccc(-c3cc4c([nH]3)[C@H](C)NC4=O)c2nc1NCC(F)F [Example 383, (S)-2-(3-((2,2-difluoroethyl)amino)-2-methylquinoxalin-5-yl)-6-methyl-5,6-dihydropyrrolo[3,4-b]pyrrol-4(1H)-one] | 
 | > 40000 |  | Cc1nc2cccc(-c3cc4c([nH]3)CCNC4=O)c2nc1-c1ccc(N)cc1Cl [Example 413, 2-(3-(4-amino-2-chlorophenyl)-2-methyl-5-quinoxalinyl)-1,5,6,7-tetrahydro-4H-pyrrolo[3,2-c]pyridin-4-one] | 
 | 119 |  | Cc1nc2cccc(-c3cc4c([nH]3)C(CO)NC4=O)c2nc1NC(C)(C)C (racemic) [Example 469, (R)-2-(3-(tert-butylamino)-2-methylquinoxalin-5-yl)-6-(hydroxymethyl)-5,6-dihydropyrrolo[3,4-b]pyrrol-4(1H)-one and (S)-2-(3-(tert-butylamino)-2-methylquinoxalin-5-yl)-6-(hydroxymethyl)-5,6-dihydropyrrolo[3,4-b]pyrrol-4(1H)-one] | 
 | 82.5 |  | Cc1nc2cccc(-c3cc4c([nH]3)[C@@H](C)NC4=O)c2nc1NCC(F)F [Example 382, (R)-2-(3-((2,2-difluoroethyl)amino)-2-methylquinoxalin-5-yl)-6-methyl-5,6-dihydropyrrolo[3,4-b]pyrrol-4(1H)-one] | 
 | 595 |  | CC(C)(C)Nc1ccc2cccc(-c3cc4c([nH]3)CCNC4=O)c2n1 [Example 340, 2-(2-(tert-butylamino)-8-quinolinyl)-1,5,6,7-tetrahydro-4H-pyrrolo[3,2-c]pyridin-4-one] | 
2.63 | 1640 |  | Cc1nc2cccc(-c3cc4c([nH]3)CCCNC4=O)c2nc1NC(C)(C)C [Example 305, 2-(3-(tert-butylamino)-2-methylquinoxalin-5-yl)-5,6,7,8-tetrahydropyrrolo[3,2-c]azepin-4(1H)-one] | 
 | 21700 |  | Cc1nc2cccc(-c3cc4c([nH]3)CCNC4=O)c2nc1-c1cccnc1Cl [Example 410, 2-(3-(2-chloro-3-pyridinyl)-2-methyl-5-quinoxalinyl)-1,5,6,7-tetrahydro-4H-pyrrolo[3,2-c]pyridin-4-one] | 

Further lines, the compound ahead of its results:

Structure (SMILES) | IC50 (Pim-1; [1]) [nM] | IC50 (KMS-12-BM cell lines; Homo sapiens, 110 min) [nM] | IC50 (Pim-2; [2]) [nM] | also measured
Cc1nc2cccc(-c3cc4c([nH]3)[C@H](C)NC4=O)c2nc1NC1(C)CC1 [Example 328, (6S)-6-methyl-2-(2-methyl-3-((1-methylcyclopropyl)amino)-5-quinoxalinyl)-5,6-dihydropyrrolo[3,4-b]pyrrol-4(1H)-one] | 0.195 | 46 | 0.201 | 
Cc1nc2cccc(-c3cc4c(=O)[nH]ncc4[nH]3)c2nc1NC(C)(C)C [Example 423, 2-(3-(tert-butylamino)-2-methylquinoxalin-5-yl)-1H-pyrrolo[2,3-d]pyridazin-4(5H)-one] | 5.44 | 378 | 3.71 | 
CC(C)(C)Nc1nc2c(-c3cc4c([nH]3)CCNC4=O)cccc2nc1N1CCC1 [Example 347, 2-(2-(1-azetidinyl)-3-(tert-butylamino)-5-quinoxalinyl)-1,5,6,7-tetrahydro-4H-pyrrolo[3,2-c]pyridin-4-one] |  | 3660 |  | IC50 (Pim-1): 4.55 nM; IC50 (Pim-2): 10.5 nM
Cc1nc2cccc(-c3cc4c([nH]3)CCNC4=O)c2nc1NC(=O)C1CC1 [Example 446, N-(3-methyl-8-(4-oxo-4,5,6,7-tetrahydro-1H-pyrrolo[3,2-c]pyridin-2-yl)quinoxalin-2-yl)cyclopropanecarboxamide] | 145 | > 40000 | 131 | 
Cc1nc2cccc(-c3cc4c([nH]3)CCNC4=O)c2nc1N[C@H]1C[C@@H](N)C1 [Example 435, 2-(3-((cis-3-aminocyclobutyl)amino)-2-methylquinoxalin-5-yl)-6,7-dihydro-1H-pyrrolo[3,2-c]pyridin-4(5H)-one hydrochloride] | 0.347 | 3000 |  | 
C[C@H]1NC(=O)c2cc(-c3cccc4c(=O)n(C5CC5)c(NC(C)(C)C)nc34)[nH]c21 [Example 475, 2-(tert-butylamino)-3-cyclopropyl-8-((6R)-6-methyl-4-oxo-1,4,5,6-tetrahydropyrrolo[3,4-b]pyrrol-2-yl)-4(3H)-quinazolinone] |  | 28 |  | 
Cc1nc2cccc(-c3cc4c([nH]3)CCNC4=O)c2nc1N[C@H]1C[C@@H](N2CCOC2=O)C1 [Example 443, 3-((1s,3s)-3-((3-methyl-8-(4-oxo-4,5,6,7-tetrahydro-1H-pyrrolo[3,2-c]pyridin-2-yl)quinoxalin-2-yl)amino)cyclobutyl)oxazolidin-2-one] |  |  |  | IC50 (KMS-12-BM cell lines): > 40000 nM
Cc1nc2cccc(-c3cc4c([nH]3)CCNC4=O)c2nc1-c1cnccc1Cl [Example 412, 2-(3-(4-chloro-3-pyridinyl)-2-methyl-5-quinoxalinyl)-1,5,6,7-tetrahydro-4H-pyrrolo[3,2-c]pyridin-4-one] |  | 21800 |  | 
Cn1c(NC(C)(C)C)nc2c(-c3cc4c([nH]3)CCNC4=O)cccc2c1=O [Example 448, 2-(tert-butylamino)-3-methyl-8-(4-oxo-4,5,6,7-tetrahydro-1H-pyrrolo[3,2-c]pyridin-2-yl)-4(3H)-quinazolinone] |  | 30.8 | 0.169 | 
Cn1c(NC(C)(C)C)nc2c(-c3cc4c([nH]3)CNC4=O)cccc2c1=O [Example 419, 2-(tert-butylamino)-3-methyl-8-(4-oxo-1,4,5,6-tetrahydropyrrolo[3,4-b]pyrrol-2-yl)-4(3H)-quinazolinone] |  | 48.3 |  | 
Cc1nc2cccc(-c3cc4c([nH]3)C(CCN)NC4=O)c2nc1NC(C)(C)C (stereo not shown) [Example 463, 6-(2-aminoethyl)-2-(3-(tert-butylamino)-2-methyl-5-quinoxalinyl)-5,6-dihydropyrrolo[3,4-b]pyrrol-4(1H)-one] |  | 9 |  | 
Cc1nc2cccc(-c3cc4c([nH]3)[C@@H](C)NC4=S)c2nc1NC(C)(C)C [Example 332, (6R)-2-(3-(tert-butylamino)-2-methyl-5-quinoxalinyl)-6-methyl-5,6-dihydropyrrolo[3,4-b]pyrrole-4(1H)-thione] |  | > 40000 |  | 
Cc1nc2cccc(-c3cc4c([nH]3)CCNC4=O)c2nc1NC(C)(C)CCS(C)(=O)=O [Example 338, 2-(3-((1,1-dimethyl-3-(methylsulfonyl)propyl)amino)-2-methyl-5-quinoxalinyl)-1,5,6,7-tetrahydro-4H-pyrrolo[3,2-c]pyridin-4-one] |  | 14300 |  | 
Cc1nc2cccc(-c3cc4c([nH]3)CCNC4=O)c2nc1N[C@H]1C[C@@H](NCC(F)(F)F)C1 [Example 444] |  | 471 |  | 
CC(=O)N1CCc2[nH]c(-c3cccc4nc(C)c(NC(C)(C)C)nc34)cc2C1=O [Example 315, 5-acetyl-2-(3-(tert-butylamino)-2-methylquinoxalin-5-yl)-6,7-dihydro-1H-pyrrolo[3,2-c]pyridin-4(5H)-one] | 35.2 | 895 |  | 
